Test results: ChEMBL document CHEMBL3758152, “11-Hydroxylation of Protoberberine by the Novel Berberine-Utilizing Aerobic Bacterium Sphingobium sp. Strain BD3100” (2015)
Active and inactive are the calls of the source. The rule behind the calls is not given here.

How the values were obtained:
Staphylococcus aureus [1] = test: Antibacterial activity against Staphylococcus aureus H209P at 125 nmol/disk after 12 hrs by paper disk method; assay type: functional
Staphylococcus aureus [2] = test: Antibacterial activity against Staphylococcus aureus H209P at 250 nmol/disk after 12 hrs by paper disk method; assay type: functional, organism-based

COc1ccc2cc3[n+](cc2c1OC)CCc1cc2c(cc1-3)OCO2 [BERBERINE]
diameter of the inhibition zone (DIZ) (Staphylococcus aureus [1]): 12 mm

COc1cc2c(cc1OC)-c1cc3cc(O)c(OC)c(OC)c3c[n+]1CC2
Activity (Staphylococcus aureus [2]): inactive

COc1c(O)cc2cc3[n+](cc2c1OC)CCc1cc2c(cc1-3)OCO2
Activity (Staphylococcus aureus [2]): inactive

COc1c(O)cc2cc3[n+](cc2c1OC)CCc1cc(O)c(O)cc1-3
Activity (Staphylococcus aureus [2]): inactive
